Experimental data as given in patent publication US20100160351A1, “PHARMACEUTICAL COMPOSITIONS AND METHODS FOR TREATING HYPERURICEMIA AND RELATED DISORDERS” (NUON THERAPEUTICS, INC., priority 2008, published 2010).

System: serum uric acid (sUA) levels in hyperuricemic patients
Test: PRESTO study: change in serum uric acid in hyperuricemic patients (baseline >=8 mg/dL), Tranilast twice daily for 1 or 3 months
Type: in vivo, human
Method: The PRESTO (Prevention of Restenosis with Tranilast and its Outcomes) study was a multicenter study of ˜11,500 patients undergoing percutaneous transluminal coronary revascularization (PTCR) with or without stenting for single or multiple vessels over a 9-month period. The study compared the composite clinical event rate of death, myocardial infarction, or need for ischemia-driven target vessel revascularization in patients treated with Tranilast (300 and 450 mg twice daily) for 1 or 3 months versus placebo. Description of the study protocol and patient population can be found in Holmes et al., The PRESTO (Prevention of Restenosis with Tranilast and its Outcomes) protocol: A double-blind, placebo-controlled trial, Am Heart J 2000; 139:23-31; and Holmes et al., Results of Prevention of REStenosis with Tranilast and its Outcomes (PRESTO) Trial, Circulation. 2002; 106:1243, both of which are incorporated by reference herein in their entirety.
Gout was a contraindication for patient enrollment in the PRESTO trial. Nevertheless, 1100 patients enrolled in the trial were identified with baseline hyperuricemia defined as initial serum uric acid (sUA) levels greater than or equal to 7 mg/dL. Of these, approximately 300 participants had baseline serum uric acid levels greater than or equal to 8 mg/dL. […] As indicated in FIG. 1 and Table 4, some patients were treated with placebo, some patients were treated with Tranilast for 4 weeks followed by placebo, and some patients were treated with Tranilast for 12 weeks.

[1] = 1M TRAN 300 mg/2M PLACEBO, Follow-Up
[2] = 1M TRAN 300 mg/2M PLACEBO, Post-PTCR
[3] = 1M TRAN 300 mg/2M PLACEBO, Week 1
[4] = 1M TRAN 300 mg/2M PLACEBO, Week 2
[5] = 1M TRAN 300 mg/2M PLACEBO, Week 3
[6] = 1M TRAN 300 mg/2M PLACEBO, Week 4
[7] = 1M TRAN 300 mg/2M PLACEBO, Week 6
[8] = 1M TRAN 300 mg/2M PLACEBO, Week 8
[9] = 1M TRAN 300 mg/2M PLACEBO, Week 10
[10] = 1M TRAN 300 mg/2M PLACEBO, Week 12
[11] = 1M TRAN 450 mg/2M PLACEBO, Follow-Up
[12] = 1M TRAN 450 mg/2M PLACEBO, Post-PTCR
[13] = 1M TRAN 450 mg/2M PLACEBO, Week 1
[14] = 1M TRAN 450 mg/2M PLACEBO, Week 2
[15] = 1M TRAN 450 mg/2M PLACEBO, Week 3
[16] = 1M TRAN 450 mg/2M PLACEBO, Week 4
[17] = 1M TRAN 450 mg/2M PLACEBO, Week 6
[18] = 1M TRAN 450 mg/2M PLACEBO, Week 8
[19] = 1M TRAN 450 mg/2M PLACEBO, Week 10
[20] = 1M TRAN 450 mg/2M PLACEBO, Week 12

COc1ccc(/C=C/C(=O)Nc2ccccc2C(=O)O)cc1OC [Tranilast, 2-[[3-(3,4-dimethoxyphenyl)-1-oxo-2-propenyl]amino]benzoic acid]
Change from Baseline in Uric Acid, Max [1]: 2.00 mg/dL
Change from Baseline in Uric Acid, Mean (SD) [1]: −0.64 (1.351) mg/dL
Change from Baseline in Uric Acid, Median [1]: -0.86 mg/dL
Change from Baseline in Uric Acid, Min [1]: -3.30 mg/dL
Change from Baseline in Uric Acid, Max [2]: 2.03 mg/dL
Change from Baseline in Uric Acid, Mean (SD) [2]: −1.33 (1.220) mg/dL
Change from Baseline in Uric Acid, Median [2]: -1.30 mg/dL
Change from Baseline in Uric Acid, Min [2]: -4.54 mg/dL
Change from Baseline in Uric Acid, Max [3]: 2.70 mg/dL
Change from Baseline in Uric Acid, Mean (SD) [3]: −2.31 (1.839) mg/dL
Change from Baseline in Uric Acid, Median [3]: -2.51 mg/dL
Change from Baseline in Uric Acid, Min [3]: -6.05 mg/dL
Change from Baseline in Uric Acid, Max [4]: 1.80 mg/dL
Change from Baseline in Uric Acid, Mean (SD) [4]: −2.61 (2.149) mg/dL
Change from Baseline in Uric Acid, Median [4]: -3.00 mg/dL
Change from Baseline in Uric Acid, Min [4]: -7.05 mg/dL
Change from Baseline in Uric Acid, Max [5]: 3.50 mg/dL
Change from Baseline in Uric Acid, Mean (SD) [5]: −2.43 (2.143) mg/dL
Change from Baseline in Uric Acid, Median [5]: -2.70 mg/dL
Change from Baseline in Uric Acid, Min [5]: -6.61 mg/dL
Change from Baseline in Uric Acid, Max [6]: 2.60 mg/dL
Change from Baseline in Uric Acid, Mean (SD) [6]: −2.30 (1.953) mg/dL
Change from Baseline in Uric Acid, Median [6]: -2.40 mg/dL
Change from Baseline in Uric Acid, Min [6]: -7.40 mg/dL
Change from Baseline in Uric Acid, Max [7]: 2.40 mg/dL
Change from Baseline in Uric Acid, Mean (SD) [7]: −0.82 (1.416) mg/dL
Change from Baseline in Uric Acid, Median [7]: -0.70 mg/dL
Change from Baseline in Uric Acid, Min [7]: -5.21 mg/dL
Change from Baseline in Uric Acid, Max [8]: 1.55 mg/dL
Change from Baseline in Uric Acid, Mean (SD) [8]: −0.63 (1.371) mg/dL
Change from Baseline in Uric Acid, Median [8]: -0.70 mg/dL
Change from Baseline in Uric Acid, Min [8]: -4.54 mg/dL
Change from Baseline in Uric Acid, Max [9]: 2.10 mg/dL
Change from Baseline in Uric Acid, Mean (SD) [9]: −0.79 (1.195) mg/dL
Change from Baseline in Uric Acid, Median [9]: -0.83 mg/dL
Change from Baseline in Uric Acid, Min [9]: -3.53 mg/dL
Change from Baseline in Uric Acid, Max [10]: 1.50 mg/dL
Change from Baseline in Uric Acid, Mean (SD) [10]: −0.75 (1.500) mg/dL
Change from Baseline in Uric Acid, Median [10]: -0.52 mg/dL
Change from Baseline in Uric Acid, Min [10]: -4.90 mg/dL
Change from Baseline in Uric Acid, Max [11]: 1.20 mg/dL
Change from Baseline in Uric Acid, Mean (SD) [11]: −0.53 (1.249) mg/dL
Change from Baseline in Uric Acid, Median [11]: -0.40 mg/dL
Change from Baseline in Uric Acid, Min [11]: -4.40 mg/dL
Change from Baseline in Uric Acid, Max [12]: 0.70 mg/dL
Change from Baseline in Uric Acid, Mean (SD) [12]: −2.00 (1.454) mg/dL
Change from Baseline in Uric Acid, Median [12]: -1.96 mg/dL
Change from Baseline in Uric Acid, Min [12]: -5.21 mg/dL
Change from Baseline in Uric Acid, Max [13]: 2.00 mg/dL
Change from Baseline in Uric Acid, Mean (SD) [13]: −3.66 (1.902) mg/dL
Change from Baseline in Uric Acid, Median [13]: -3.95 mg/dL
Change from Baseline in Uric Acid, Min [13]: -8.00 mg/dL
Change from Baseline in Uric Acid, Max [14]: 1.00 mg/dL
Change from Baseline in Uric Acid, Mean (SD) [14]: −3.43 (2.176) mg/dL
Change from Baseline in Uric Acid, Median [14]: -3.50 mg/dL
Change from Baseline in Uric Acid, Min [14]: -8.40 mg/dL
Change from Baseline in Uric Acid, Max [15]: -0.70 mg/dL
Change from Baseline in Uric Acid, Mean (SD) [15]: −4.19 (1.978) mg/dL
Change from Baseline in Uric Acid, Median [15]: -4.27 mg/dL
Change from Baseline in Uric Acid, Min [15]: -7.90 mg/dL
Change from Baseline in Uric Acid, Max [16]: 1.00 mg/dL
Change from Baseline in Uric Acid, Mean (SD) [16]: −3.52 (2.127) mg/dL
Change from Baseline in Uric Acid, Median [16]: -4.03 mg/dL
Change from Baseline in Uric Acid, Min [16]: -7.65 mg/dL
Change from Baseline in Uric Acid, Max [17]: 2.50 mg/dL
Change from Baseline in Uric Acid, Mean (SD) [17]: −0.29 (1.188) mg/dL
Change from Baseline in Uric Acid, Median [17]: -0.30 mg/dL
Change from Baseline in Uric Acid, Min [17]: -3.20 mg/dL
Change from Baseline in Uric Acid, Max [18]: 3.60 mg/dL
Change from Baseline in Uric Acid, Mean (SD) [18]: −0.49 (2.142) mg/dL
Change from Baseline in Uric Acid, Median [18]: -0.10 mg/dL
Change from Baseline in Uric Acid, Min [18]: -9.70 mg/dL
Change from Baseline in Uric Acid, Max [19]: 4.60 mg/dL
Change from Baseline in Uric Acid, Mean (SD) [19]: −0.46 (1.494) mg/dL
Change from Baseline in Uric Acid, Median [19]: -0.38 mg/dL
Change from Baseline in Uric Acid, Min [19]: -4.40 mg/dL
Change from Baseline in Uric Acid, Max [20]: 2.70 mg/dL
Change from Baseline in Uric Acid, Mean (SD) [20]: −0.56 (1.298) mg/dL
Change from Baseline in Uric Acid, Median [20]: -0.34 mg/dL
Change from Baseline in Uric Acid, Min [20]: -3.50 mg/dL
